Ten compounds from patent US12516039B2, “N-linked isoquinoline amides as LRRK2 inhibitors, pharmaceutical compositions, and uses thereof” (Merck Sharp & Dohme LLC, priority 2020, dated 2026) can be followed below.

SMILES strings stand for the structures.

T1 sequence (Q5S007 970-2527 G2019S limits assumed): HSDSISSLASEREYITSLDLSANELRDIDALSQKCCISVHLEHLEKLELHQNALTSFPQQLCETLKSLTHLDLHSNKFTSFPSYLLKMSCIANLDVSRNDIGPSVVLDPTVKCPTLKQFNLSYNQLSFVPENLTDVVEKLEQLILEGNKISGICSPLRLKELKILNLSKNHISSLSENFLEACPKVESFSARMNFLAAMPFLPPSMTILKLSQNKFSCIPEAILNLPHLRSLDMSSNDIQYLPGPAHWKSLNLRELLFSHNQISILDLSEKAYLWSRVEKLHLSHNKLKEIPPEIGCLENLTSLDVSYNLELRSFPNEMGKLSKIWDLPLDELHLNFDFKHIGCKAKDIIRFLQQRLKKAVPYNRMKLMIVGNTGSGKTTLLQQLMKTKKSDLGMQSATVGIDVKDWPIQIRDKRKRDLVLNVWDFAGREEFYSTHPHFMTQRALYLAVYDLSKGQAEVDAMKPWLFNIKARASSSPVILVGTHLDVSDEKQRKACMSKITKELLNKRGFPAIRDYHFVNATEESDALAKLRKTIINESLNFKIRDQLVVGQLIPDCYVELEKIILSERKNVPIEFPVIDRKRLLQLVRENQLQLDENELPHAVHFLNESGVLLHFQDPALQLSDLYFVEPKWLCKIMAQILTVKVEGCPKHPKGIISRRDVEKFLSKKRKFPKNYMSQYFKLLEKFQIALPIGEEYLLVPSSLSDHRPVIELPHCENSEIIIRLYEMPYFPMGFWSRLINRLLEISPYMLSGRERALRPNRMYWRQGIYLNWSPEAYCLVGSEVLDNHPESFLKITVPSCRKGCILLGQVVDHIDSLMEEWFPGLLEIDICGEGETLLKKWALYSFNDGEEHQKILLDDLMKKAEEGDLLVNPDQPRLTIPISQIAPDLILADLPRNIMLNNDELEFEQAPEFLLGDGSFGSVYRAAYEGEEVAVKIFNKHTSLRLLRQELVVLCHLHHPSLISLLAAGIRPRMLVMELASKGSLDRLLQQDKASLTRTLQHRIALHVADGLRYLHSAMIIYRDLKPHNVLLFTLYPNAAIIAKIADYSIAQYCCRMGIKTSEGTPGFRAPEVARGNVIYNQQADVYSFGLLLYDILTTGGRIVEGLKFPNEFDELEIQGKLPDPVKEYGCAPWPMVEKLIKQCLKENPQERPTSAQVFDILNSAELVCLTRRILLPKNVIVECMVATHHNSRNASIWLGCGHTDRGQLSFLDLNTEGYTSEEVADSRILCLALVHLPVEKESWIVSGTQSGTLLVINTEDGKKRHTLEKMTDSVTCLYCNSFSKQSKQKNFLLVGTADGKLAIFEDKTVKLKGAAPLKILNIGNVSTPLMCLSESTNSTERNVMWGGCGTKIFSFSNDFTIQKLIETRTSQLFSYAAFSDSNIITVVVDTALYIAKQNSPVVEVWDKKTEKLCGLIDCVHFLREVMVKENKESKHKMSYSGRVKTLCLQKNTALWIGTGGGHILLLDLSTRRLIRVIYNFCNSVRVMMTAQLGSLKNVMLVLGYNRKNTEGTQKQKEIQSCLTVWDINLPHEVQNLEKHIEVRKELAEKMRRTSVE

The experiment concerns the target T1, GST-tagged truncated human mutant G2019S LRRK2 (Homo sapiens, UniProt Q5S007, G2019S).
T1 construct: GST-tagged truncated human mutant G2019S LRRK2; purchased Life Technologies Corporation (Carlsbad, CA)
Nature of the experiment: LRRK2 G2019S Km ATP LanthaScreen assay. The format is biochemical. The settings on record: 134 μM ATP (Km ATP), LRRKtide substrate, mean of several tests, read-out: LRRK2 pIC50 (converted). The gist of the method: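 GST-tagged truncated human LRRK2 G2019S (1.25 nM enzyme solution) was preincubated 15 min with compound, then reacted 90 min at ambient temperature with fluorescein-LRRKtide (400 nM solution) and 134 μM ATP (Km) in Tris pH 8.5. EDTA stop; Tb anti-phospho-LRRKtide TR-FRET (520/495 ratio). IC50 from 4-parameter fits, mean of several runs.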
On to `CC1C(C(=O)Nc2cc3cc(N4CCN(C5(C)COCC5F)CC4)c(Cl)cc3cn2)C1c1ccn(C)n1` (single isomer, unassigned) [Ex-10.16], for which the IC50 is 7.94 nM.
Regarding `CCC1C(C(=O)Nc2cc3cc(N4CCN(C5(C)COCC5F)CC4)c(Cl)cc3cn2)C1c1ccn(C)n1` (single isomer, unassigned) [Ex-10.51, (1R,2R,3R, 1R,2S,3R, or 1S,2R,3S, or 1S,2S,3S)-N-[7-chloro-6-[4-((3R,4R or 3S,4S)-4-fluoro-3-methyl-tetrahydrofuran-3-yl)piperazin-1-yl]-3-isoquinolyl]-2-ethyl-3-(1-methylpyrazol-3-yl)cyclopropanecarboxamide], the IC50 is 0.0813 nM.
Take `C[C@H]1CN(C2(C)COCC2O)CCN1c1cc2cc(NC(=O)C3CC34CCOCC4)ncc2cc1Cl` (single isomer, unassigned) [Ex-14.1, N-(7-chloro-6-((2R or 2S)-4-(4-(3R,4R or 3S,4S)-hydroxy-3-methyltetrahydrofuran-3-yl)-2-methylpiperazin-1-yl)isoquinolin-3-yl)-6-oxaspiro[2.5]octane-1-carboxamide]: the IC50 was 87.1 nM.
`CC1(C2CCOC2)CC1C(=O)Nc1cc2cc(N3CCN(C4(C)COCC4O)CC3)c(Cl)cc2cn1` (single isomer, unassigned) [Ex-10.88, (1R,2R or 1S,2S, or 1R,2S, or 1S,2R)-N-[7-chloro-6-[4-((3R,4R or 3S,4S)-4-hydroxy-3-methyl-tetrahydrofuran-3-yl)piperazin-1-yl]-3-isoquinolyl]-2-methyl-2-tetrahydrofuran-3-yl-cyclopropanecarboxamide]: the IC50 was 0.182 nM.
As to `C[C@H]1CN(c2cc3cc(NC(=O)C4CC45CCOCC5)ncc3cc2Cl)CCN1C1(C)COCC1O` (single isomer, unassigned) [Ex-2.21, (R or S)-N-(7-chloro-6-((S or R)-4-((3R,4R, or 3S,4S)-4-hydroxy-3-methyltetrahydrofuran-3-yl)-3-methylpiperazin-1-yl)isoquinolin-3-yl)-6-oxaspiro[2.5]octane-1-carboxamide], the IC50 was 0.589 nM.
For the compound `CC1C(C(=O)Nc2cc3cc(N4CCN(C5(C)COCC5O)CC4)c(Cl)cc3cn2)C1c1ccn(C)n1` (single isomer, unassigned) [Ex-10.53, (1R,2R,3R, 1R,2S,3R, or 1S,2R,3S, or 1S,2S,3S)-N-[7-chloro-6-[4-((3R,4R or 3S,4S)-4-hydroxy-3-methyl-tetrahydrofuran-3-yl)piperazin-1-yl]-3-isoquinolyl]-2-methyl-3-(1-methylpyrazol-3-yl)cyclopropanecarboxamide], the IC50 is 0.0813 nM.
The value for `N#CC1(F)CCN(c2cc3cc(NC(=O)C4CC4c4cncnc4)ncc3cc2Cl)CC1` (single isomer, unassigned) [Ex-5.19] was 117 nM; that for `CC1(N2CCN(c3cc4cc(NC(=O)C5CCCOC5)ncc4cc3Cl)CC2)COCC1O` (single isomer, unassigned) [Ex-10.4, (3R or 3S)-N-(7-chloro-6-(4-((3R, 4R or 3S, 4S)-4-hydroxy-3-methyltetrahydrofuran-3-yl)piperazin-1-yl)isoquinolin-3-yl)tetrahydro-2H-pyran-3-carboxamide] was 1.38 nM; that for `CC1(N2CCN(c3cc4cc(NC(=O)C5CC56CCCOC6)ncc4cc3Cl)CC2)COCC1O` (single isomer, unassigned) [Ex-1.11, (1R,3S, or 1R,3R, or 1S,3S, or 1S,3R)-N-(7-chloro-6-(4-((3R,4R or 3S,4S)-4-hydroxy-3-methyltetrahydrofuran-3-yl)piperazin-1-yl)isoquinolin-3-yl)-5-oxaspiro[2.5]octane-1-carboxamide] was 1.7 nM.
The value for `Cc1cc2cnc(NC(=O)C3C(C)C3c3cnn(C)c3)cc2cc1N1CCN(C2(C)CCOC2)CC1` (single isomer, unassigned) [Ex-9.13] was 11.5 nM.
